Experiment [1] concerns Pythium ultimum. Briefly: Pythium ultimum / liquid culture (seedling damping off). Type of experiment: cell-based. Particulars: Globisporangium ultimum, growth inhibition photometrically 2-3 days after application, compared to untreated control. Here is the method: 15. Pythium ultimum/Liquid Culture (Seedling Damping Off) Mycelia fragments and oospores of a newly grown liquid culture of the fungus are directly mixed into nutrient broth (PDB potato dextrose broth). After placing a (DMSO) solution of test compound into a microtiter plate (96-well format), the nutrient broth containing the fungal mycelia/spore mixture is added. The test plates are incubated at 24° C. and the inhibition of growth is determined photometrically 2-3 days after application.

For experiment [2], the system named is Monographella nivalis (Microdochium nivale). Briefly: Monographella nivalis (Microdochium nivale) / liquid culture (foot rot cereals). As to conditions: growth inhibition photometrically 4-5 days after application, compared to untreated control. The format is cell-based. Here is the method: 8. Monographella nivalis (Microdochium nivale)/Liquid Culture (Foot Rot Cereals) Conidia of the fungus from cryogenic storage are directly mixed into nutrient broth (PDB potato dextrose broth). After placing a (DMSO) solution of test compound into a microtiter plate (96-well format), the nutrient broth containing the fungal spores is added. The test plates are incubated at 24° C. and the inhibition of growth is determined photometrically 4-5 days after application.

For the compound `COc1c(C(=O)Nc2nc(C(C)C)ncc2C)ccc2c1B(O)OC2` [Compound 45, 1-hydroxy-N-(2-isopropyl-5-methyl-pyrimidin-4-yl)-7-methoxy-3H-2,1-benzoxaborole-6-carboxamide], the inhibition of growth at 20 ppm in experiment [1] and in experiment [2] was not below 80% in each case.
Consider `CCOc1ccc(NC(=O)c2ccc3c(c2OC)B(O)OC3)cc1Cl` [Compound 41, N-(3-chloro-4-ethoxy-phenyl)-1-hydroxy-7-methoxy-3H-2,1-benzoxaborole-6-carboxamide], for which, in experiment [2], the inhibition of growth – broadly, the percentage by which the read-out fell short of the control – at 20 ppm is not below 80%.
Take `COc1c(C(=O)N(C)c2nnc(C(F)(F)F)s2)ccc2c1B(O)OC2` [Compound 49, 1-hydroxy-7-methoxy-N-methyl-N-[5-(trifluoromethyl)-1,3,4-thiadiazol-2-yl]-3H-2,1-benzoxaborole-6-carboxamide]: the inhibition of growth at 20 ppm in experiment [1] and in experiment [2] was not below 80% throughout.
For `COc1c(C(=O)Nc2ccc(Cl)cc2F)ccc2c1B(O)OC2` [Compound 54, N-(4-chloro-2-fluoro-phenyl)-1-hydroxy-7-methoxy-3H-2,1-benzoxaborole-6-carboxamide], in experiment [2], the inhibition of growth at 20 ppm is not below 80%.
`COc1c(C(=O)OCc2cccc(C)n2)ccc2c1B(O)OC2` [Compound 119, (6-methyl-2-pyridyl)methyl 1-hydroxy-7-methoxy-3H-2,1-benzoxaborole-6-carboxylate]: the inhibition of growth at 20 ppm in experiment [1] and in experiment [2] was not below 80% each time.
For the compound `COC(=O)c1cccc(NC(=O)c2ccc3c(c2OC)B(O)OC3)c1` [Compound 52, methyl 3-[(1-hydroxy-7-methoxy-3H-2,1-benzoxaborole-6-carbonyl)amino]benzoate], the inhibition of growth at 20 ppm in experiment [1] and in experiment [2] was not below 80% in each case.
With `COc1c(C(=O)NC(C)c2ccc(F)cc2)ccc2c1B(O)OC2` (stereo not shown) [Compound 57, N-[1-(4-fluorophenyl)ethyl]-1-hydroxy-7-methoxy-3H-2,1-benzoxaborole-6-carboxamide], the inhibition of growth at 20 ppm in experiment [1] and in experiment [2] was not below 80% throughout.
In experiment [1], `COc1c(C(=O)N(C)c2cc(Cl)cnc2Cl)ccc2c1B(O)OC2` [Compound 39, N-(2,5-dichloro-3-pyridyl)-1-hydroxy-7-methoxy-N-methyl-3H-2,1-benzoxaborole-6-carboxamide] had an inhibition of growth at 20 ppm not below 80%.
On the same count and under the same terms, the value for `COc1c(C(=O)NCC2CC(F)(F)C2(F)F)ccc2c1B(O)OC2` (stereo not shown) [Compound 62, 1-hydroxy-7-methoxy-N-[(2,2,3,3-tetrafluorocyclobutyl)methyl]-3H-2,1-benzoxaborole-6-carboxamide] was not below 80%; that for `COc1c(C(=O)OCCN(C)C(=O)OC(C)(C)C)ccc2c1B(O)OC2` [Compound 112, 2-[tert-butoxycarbonyl(methyl)amino]ethyl 1-hydroxy-7-methoxy-3H-2,1-benzoxaborole-6-carboxylate] was not below 80%.
Still for that read-out and setting: the value for `COc1c(C(=O)OCC2COC(=O)O2)ccc2c1B(O)OC2` (stereo not shown) [Compound 113, (2-oxo-1,3-dioxolan-4-yl)methyl 1-hydroxy-7-methoxy-3H-2,1-benzoxaborole-6-carboxylate] was not below 80%; that for `COc1c(C(=O)OC2COCOC2)ccc2c1B(O)OC2` [Compound 122, 1,3-dioxan-5-yl 1-hydroxy-7-methoxy-3H-2,1-benzoxaborole-6-carboxylate] was not below 80%.
On the same count and under the same terms, the figure for `CCC(NC(=O)c1ccc2c(c1OC)B(O)OC2)C(=O)OC` (stereo not shown) [Compound 44, methyl 2-[(1-hydroxy-7-methoxy-3H-2,1-benzoxaborole-6-carbonyl)amino]butanoate] is not below 80%; for `COc1c(C(=O)OCCc2ccccn2)ccc2c1B(O)OC2` [Compound 123, 2-(2-pyridyl)ethyl 1-hydroxy-7-methoxy-3H-2,1-benzoxaborole-6-carboxylate] it is not below 80%; for `COc1c(C(=O)Nc2nnc(C)[nH]2)ccc2c1B(O)OC2` [Compound 43, 1-hydroxy-7-methoxy-N-(5-methyl-4H-1,2,4-triazol-3-yl)-3H-2,1-benzoxaborole-6-carboxamide] it is not below 80%.
In the case of `COc1c(C(=O)OCn2cncn2)ccc2c1B(O)OC2` [Compound 73, 1,2,4-triazol-1-ylmethyl 1-hydroxy-7-methoxy-3H-2,1-benzoxaborole-6-carboxylate], the inhibition of growth at 20 ppm in experiment [1] was not below 80%.
The same measure, in the same setting: the figure for `COc1c(C(=O)NCc2ccccn2)ccc2c1B(O)OC2` [Compound 7, 1-hydroxy-7-methoxy-N-(2-pyridylmethyl)-3H-2,1-benzoxaborole-6-carboxamide] is not below 80%; for `COc1c(C(=O)NC(=S)N(C)Cc2cccnc2)ccc2c1B(O)OC2` [Compound 47, 1-hydroxy-7-methoxy-N-[methyl(3-pyridylmethyl)carbamothioyl]-3H-2,1-benzoxaborole-6-carboxamide] it is not below 80%; for `COC(=O)c1cc(NC(=O)c2ccc3c(c2OC)B(O)OC3)cn1C` [Compound 67, methyl 4-[(1-hydroxy-7-methoxy-3H-2,1-benzoxaborole-6-carbonyl)amino]-1-methyl-pyrrole-2-carboxylate] it is not below 80%.
In the case of `COc1c(C(=O)NCC(C)C)ccc2c1B(O)OC2` [Compound 36, 1-hydroxy-N-isobutyl-7-methoxy-3H-2,1-benzoxaborole-6-carboxamide], in experiment [1], the inhibition of growth at 20 ppm was not below 80%.
In experiment [2], `COc1c(C(=O)Nc2ccc(OC(F)(F)F)cc2)ccc2c1B(O)OC2` [Compound 55, 1-hydroxy-7-methoxy-N-[4-(trifluoromethoxy)phenyl]-3H-2,1-benzoxaborole-6-carboxamide] returned an inhibition of growth at 20 ppm not below 80%.
`COc1c(C(=O)n2nc(N)cc2C)ccc2c1B(O)OC2` [Compound 71, (3-amino-5-methyl-pyrazol-1-yl)-(1-hydroxy-7-methoxy-3H-2,1-benzoxaborol-6-yl)methanone] yielded an inhibition of growth at 20 ppm in experiment [1] not below 80%.
The compound `CCC1COC(CNC(=O)c2ccc3c(c2OC)B(O)OC3)O1` (stereo not shown) [Compound 69, N-[(4-ethyl-1,3-dioxolan-2-yl)methyl]-1-hydroxy-7-methoxy-3H-2,1-benzoxaborole-6-carboxamide] had an inhibition of growth at 20 ppm in experiment [1] not below 80%.
On the same count and under the same terms, the value for `COc1c(C(=O)Nc2cc(C)cc(C)n2)ccc2c1B(O)OC2` [Compound 22, N-(4,6-dimethyl-2-pyridyl)-1-hydroxy-7-methoxy-3H-2,1-benzoxaborole-6-carboxamide] was not below 80%; that for `COc1c(C(=O)OCC(C)(F)F)ccc2c1B(O)OC2` [Compound 74, 2,2-difluoropropyl 1-hydroxy-7-methoxy-3H-2,1-benzoxaborole-6-carboxylate] was not below 80%.
On the same count and under the same terms, the figure for `COc1c(C(=O)N(C)c2ncn[nH]2)ccc2c1B(O)OC2` [Compound 50, 1-hydroxy-7-methoxy-N-methyl-N-(1H-1,2,4-triazol-5-yl)-3H-2,1-benzoxaborole-6-carboxamide] is not below 80%; for `COCCN(C)C(=O)c1ccc2c(c1OC)B(O)OC2` [Compound 27, 1-hydroxy-7-methoxy-N-(2-methoxyethyl)-N-methyl-3H-2,1-benzoxaborole-6-carboxamide] it is not below 80%; for `COc1c(C(=O)NC(=O)N(C)C)ccc2c1B(O)OC2` [Compound 21, N-(dimethylcarbamoyl)-1-hydroxy-7-methoxy-3H-2,1-benzoxaborole-6-carboxamide] it is not below 80%.
Still for that read-out and setting: the figure for `COc1c(C(=O)NCc2ccc(C)o2)ccc2c1B(O)OC2` [Compound 70, 1-hydroxy-7-methoxy-N-[(5-methyl-2-furyl)methyl]-3H-2,1-benzoxaborole-6-carboxamide] is not below 80%; for `CCSc1nc(NC(=O)c2ccc3c(c2OC)B(O)OC3)nn1C` [Compound 40, N-(5-ethylsulfanyl-1-methyl-1,2,4-triazol-3-yl)-1-hydroxy-7-methoxy-3H-2,1-benzoxaborole-6-carboxamide] it is not below 80%; for `COc1c(C(=O)Nc2ccnc(C)c2)ccc2c1B(O)OC2` [Compound 42, 1-hydroxy-7-methoxy-N-(2-methyl-4-pyridyl)-3H-2,1-benzoxaborole-6-carboxamide] it is not below 80%.
Consider `COc1cc(COC(=O)c2ccc3c(c2OC)B(O)OC3)nc(OC)n1` [Compound 78, (2,6-dimethoxypyrimidin-4-yl)methyl 1-hydroxy-7-methoxy-3H-2,1-benzoxaborole-6-carboxylate], for which the inhibition of growth at 20 ppm in experiment [1] was not below 80%.
The same measure, in the same setting: the figure for `COc1c(C(=O)NCCOc2ccccc2)ccc2c1B(O)OC2` [Compound 56, 1-hydroxy-7-methoxy-N-(2-phenoxyethyl)-3H-2,1-benzoxaborole-6-carboxamide] is not below 80%; for `COc1c(C(=O)N2CCCC2CO)ccc2c1B(O)OC2` (stereo not shown) [Compound 72, (1-hydroxy-7-methoxy-3H-2,1-benzoxaborol-6-yl)-[2-(hydroxymethyl)pyrrolidin-1-yl]methanone] it is not below 80%.
In experiment [1], `COC(=O)C[C@H](OC(=O)c1ccc2c(c1OC)B(O)OC2)C(=O)OC` [Compound 108, dimethyl (2S)-2-(1-hydroxy-7-methoxy-3H-2,1-benzoxaborole-6-carbonyl)oxybutanedioate] gave an inhibition of growth at 20 ppm not below 80%.

The values are drawn from US20180244699A1, “1-HYDROXY-3H-2,1-BENZOXABOROLE DERIVATIVES AND THEIR USE AS MICROBIOCIDES” (Syngenta Participations AG, priority 2015, published 2018).
